Assay results as given in patent US12054494B2, “Compound with anticancer activity” (KYOWA KIRIN CO., LTD., priority 2018, dated 2024).

test system: SU-DHL-4 cells; test: Inhibitory effect on cell viability (Cell Counting Kit-8); type: cell-based; settings: Homo sapiens, 72 hours culture with test compound, concentration showing 90% inhibition rate of cell viability
In short: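 IC90 corresponds to 90% loss of viability, measured as CCK-8 absorbance at 450 nm (2-3 h colour development). Compounds in 9 dilutions (0.1% DMSO) were applied for 72 h at 37° C to SU-DHL-4 lymphoma cells seeded at 2000/well in RPMI1640/10% FBS after 18-25 h preculture.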

SMILES | IC90 [nM]
CCC(=O)N1c2ccccc2[C@H](Nc2ccc(NC(=O)CN3CC=C(c4ccc(N[C@@H]5C[C@H](C)N(C(=O)CC)c6ccccc65)cc4)CC3)cc2)C[C@@H]1C [Compound 5k, N-(4-(((2S,4R)-2-Methyl-1-propionyl-1,2,3,4-tetrahydroquinolin-4-yl)amino)phenyl)-2-(4-(4-(((2S,4R)-2-methyl-1-propionyl-1,2,3,4-tetrahydroquinolin-4-yl)amino)phenyl)-3,6-dihydropyridin-1(2H)-yl)acetamide] | 7.48
CCC(=O)N1c2ccccc2[C@H](Nc2ccc(NC(=O)CCS(=O)(=O)c3ccc(N[C@@H]4C[C@H](C)N(C(=O)CC)c5ccccc54)cc3)cc2)C[C@@H]1C [Compound 5l, N-(4-(((2S,4R)-2-Methyl-1-propionyl-1,2,3,4-tetrahydroquinolin-4-yl)amino)phenyl)-3-((4-(((2S,4R)-2-methyl-1-propionyl-1,2,3,4-tetrahydroquinolin-4-yl)amino)phenyl)sulfonyl)propanamide] | 37
CCC(=O)N1c2ccccc2[C@H](Nc2ccc(NC(=O)CC[S+]([O-])c3ccc(N[C@@H]4C[C@H](C)N(C(=O)CC)c5ccccc54)cc3)cc2)C[C@@H]1C (stereo partly drawn) [Compound 5m, N-(4-(((2S,4R)-2-Methyl-1-propionyl-1,2,3,4-tetrahydroquinolin-4-yl)amino)phenyl)-3-((4-(((2S,4R)-2-methyl-1-propionyl-1,2,3,4-tetrahydroquinolin-4-yl)amino)phenyl)sulfinyl)propanamide] | 0.59
CCC(=O)N1c2ccccc2[C@H](Nc2ccc(OCCNC(=O)c3ccc(N[C@@H]4C[C@H](C)N(C(=O)CC)c5ccccc54)cc3)cc2)C[C@@H]1C [Compound 5n, 4-(((2S,4R)-2-Methyl-1-propionyl-1,2,3,4-tetrahydroquinolin-4-yl)amino)-N-(2-(4-(((2S,4R)-2-methyl-1-propionyl-1,2,3,4-tetrahydroquinolin-4-yl)amino)phenoxy)ethyl)benzamide] | 8.83
CCC(=O)N1c2ccccc2[C@H](Nc2ccc(NC(=O)COCC(=O)Nc3ccc(N[C@@H]4C[C@H](C)N(C(=O)CC)c5ccccc54)cc3)cc2)C[C@@H]1C [Compound 5o, 2,2′-Oxybis(N-(4-(((2S,4R)-2-methyl-1-propionyl-1,2,3,4-tetrahydroquinolin-4-yl)amino)phenyl)acetamide)] | 0.14
CCC(=O)N1c2ccccc2[C@H](Nc2ccc(OCCCNC(=O)c3ccc(N[C@@H]4C[C@H](C)N(C(=O)CC)c5ccccc54)cc3)cc2)C[C@@H]1C [Compound 5p, 4-(((2S,4R)-2-Methyl-1-propionyl-1,2,3,4-tetrahydroquinolin-4-yl)amino)-N-(3-(4-(((2S,4R)-2-methyl-1-propionyl-1,2,3,4-tetrahydroquinolin-4-yl)amino)phenoxy)propyl)benzamide] | 2.68
CCC(=O)N1c2ccccc2[C@H](Nc2ccc(Cc3cnc4n3CCN(C(=O)c3ccc(N[C@@H]5C[C@H](C)N(C(=O)CC)c6ccccc65)cc3)C4)cc2)C[C@@H]1C [Compound 5q, 1-((2S,4R)-2-Methyl-4-((4-((7-(4-(((2S,4R)-2-methyl-1-propionyl-1,2,3,4-tetrahydroquinolin-4-yl)amino)benzoyl)-5,6,7,8-tetrahydroimidazo[1,2-a]pyrazin-3-yl)methyl)phenyl)amino)-3,4-dihydroquinolin-1(2H)-yl)propan-1-one] | 0.11
CCC(=O)N1c2ccccc2[C@H](Nc2ccc(CCCC(=O)Nc3ccc(N[C@@H]4C[C@H](C)N(C(=O)CC)c5ccccc54)cc3)cc2)C[C@@H]1C [Compound 5r, N,4-Bis(4-(((2S,4R)-2-methyl-1-propionyl-1,2,3,4-tetrahydroquinolin-4-yl)amino)phenyl)butanamide] | 1.78
CCC(=O)N1c2ccccc2[C@H](Nc2ccc(NC(=O)CCS(=O)(=O)Nc3ccc(N[C@@H]4C[C@H](C)N(C(=O)CC)c5ccccc54)cc3)cc2)C[C@@H]1C [Compound 6b, N-(4-(((2S,4R)-2-Methyl-1-propionyl-1,2,3,4-tetrahydroquinolin-4-yl)amino)phenyl)-3-(N-(4-(((2S,4R)-2-methyl-1-propionyl-1,2,3,4-tetrahydroquinolin-4-yl)amino)phenyl)sulfamoyl)propanamide] | 0.1
CCC(=O)N1c2ccccc2[C@H](Nc2ccc(CN3CC(C(=O)Nc4ccc(N[C@@H]5C[C@H](C)N(C(=O)CC)c6ccccc65)cc4)C3)cc2)C[C@@H]1C [Compound 6d, 1-(4-(((2S,4R)-2-Methyl-1-propionyl-1,2,3,4-tetrahydroquinolin-4-yl)amino)benzyl)-N-(4-(((2S,4R)-2-methyl-1-propionyl-1,2,3,4-tetrahydroquinolin-4-yl)amino)phenyl)azetidine-3-carboxamide] | 5.08
CCC(=O)N1c2ccccc2[C@H](Nc2ccc(NS(=O)(=O)CCNC(=O)c3ccc(N[C@@H]4C[C@H](C)N(C(=O)CC)c5ccccc54)cc3)cc2)C[C@@H]1C [Compound 6g, 4-(((2S,4R)-2-Methyl-1-propionyl-1,2,3,4-tetrahydroquinolin-4-yl)amino)-N-(2-(N-(4-(((2S,4R)-2-methyl-1-propionyl-1,2,3,4-tetrahydroquinolin-4-yl)amino)phenyl)sulfamoyl)ethyl)benzamide] | 0.31
CCC(=O)N1c2ccccc2[C@H](Nc2ccc(C(=O)N3CCC(n4cc(-c5ccc(N[C@@H]6C[C@H](C)N(C(=O)CC)c7ccccc76)cc5)cn4)CC3)cc2)C[C@@H]1C [Compound 6o, 1-((2S,4R)-2-Methyl-4-((4-(1-(1-(4-(((2S,4R)-2-methyl-1-propionyl-1,2,3,4-tetrahydroquinolin-4-yl)amino)benzoyl)piperidin-4-yl)-1H-pyrazol-4-yl)phenyl)amino)-3,4-dihydroquinolin-1(2H)-yl)propan-1-one] | 0.14
CCC(=O)N1c2ccccc2[C@H](Nc2ccc(NC(=O)C3CN(C(=O)N4CCC(N[C@@H]5C[C@H](C)N(C(=O)CC)c6ccccc65)CC4)C3)cc2)C[C@@H]1C [Compound 10a, N-(4-(((2S,4R)-2-Methyl-1-propionyl-1,2,3,4-tetrahydroquinolin-4-yl)amino)phenyl)-1-(4-(((2S,4R)-2-methyl-1-propionyl-1,2,3,4-tetrahydroquinolin-4-yl)amino)piperidine-1-carbonyl)azetidine-3-carboxamide] | 2.4

Continued, values first:

IC90 [nM] | SMILES
0.89 | CCC(=O)N1c2ccccc2[C@H](Nc2ccc(C(=O)N3CCn4c(C(O)c5ccc(N[C@@H]6C[C@H](C)N(C(=O)CC)c7ccccc76)cc5)cnc4C3)cc2)C[C@@H]1C (stereo partly drawn) [Compound 6a, 1-((2S,4R)-4-((4-(3-(Hydroxy(4-(((2S,4R)-2-methyl-1-propionyl-1,2,3,4-tetrahydroquinolin-4-yl)amino)phenyl)methyl)-5,6,7,8-tetrahydroimidazo[1,2-a]pyrazine-7-carbonyl)phenyl)amino)-2-methyl-3,4-dihydroquinolin-1(2H)-yl)propan-1-one]
0.83 | CCC(=O)N1c2ccccc2[C@H](Nc2ccc(C(=O)NCCc3cn(-c4ccc(N[C@@H]5C[C@H](C)N(C(=O)CC)c6ccccc65)cc4)nn3)cc2)C[C@@H]1C [Compound 6c, 4-(((2S,4R)-2-Methyl-1-propionyl-1,2,3,4-tetrahydroquinolin-4-yl)amino)-N-(2-(1-(4-(((2S,4R)-2-methyl-1-propionyl-1,2,3,4-tetrahydroquinolin-4-yl)amino)phenyl)-1H-1,2,3-triazol-4-yl)ethyl)benzamide]
0.003 | CCC(=O)N1c2ccccc2C(Nc2ccc(NC(=O)C#CCNC(=O)c3ccc(N[C@@H]4C[C@H](C)N(C(=O)CC)c5ccccc54)cc3)cc2)CC1C (stereo partly drawn) [Compound 6h, 4-(((2S,4R)-2-Methyl-1-propionyl-1,2,3,4-tetrahydroquinolin-4-yl)amino)-N-(4-((4-((2-methyl-1-propionyl-1,2,3,4-tetrahydroquinolin-4-yl)amino)phenyl)amino)-4-oxobut-2-yn-1-yl)benzamide]
41.5 | CCC(=O)N1c2ccccc2[C@H](Nc2ccc(C(=O)N3CCCN(C(=O)c4ccc(N[C@@H]5C[C@H](C)N(C(=O)CC)c6ccccc65)cc4)CC3)cc2)C[C@@H]1C [Compound 6p, 1,1′-((2S,2′S,4R,4′R)-(((1,4-Diazepane-1,4-dicarbonyl)bis(4,1-phenylene))bis(azanediyl))bis(2-methyl-3,4-dihydroquinoline-4,1(2H)-diyl))bis(propan-1-one)]
0.45 | CCC(=O)N1c2ccccc2[C@H](Nc2ccc(C(=O)NCCn3cc(-c4ccc(N[C@@H]5C[C@H](C)N(C(=O)CC)c6ccccc65)cc4)cn3)cc2)C[C@@H]1C [Compound 6q, 4-(((2S,4R)-2-Methyl-1-propionyl-1,2,3,4-tetrahydroquinolin-4-yl)amino)-N-(2-(4-(4-(((2S,4R)-2-methyl-1-propionyl-1,2,3,4-tetrahydroquinolin-4-yl)amino)phenyl)-1H-pyrazol-1-yl)ethyl)benzamide]
0.13 | CCC(=O)N1c2ccccc2[C@H](Nc2ccc(C(=O)NCC#CC(=O)N3CCC(N[C@@H]4C[C@H](C)N(C(=O)CC)c5ccccc54)CC3)cc2)C[C@@H]1C [Compound 10c, 4-(((2S,4R)-2-Methyl-1-propionyl-1,2,3,4-tetrahydroquinolin-4-yl)amino)-N-(4-(4-(((2S,4R)-2-methyl-1-propionyl-1,2,3,4-tetrahydroquinolin-4-yl)amino)piperidin-1-yl)-4-oxobut-2-yn-1-yl)benzamide]
0.93 | CCC(=O)N1c2ccccc2[C@H](Nc2ccc(NC(=O)CCCC(=O)Nc3ccc(N[C@@H]4C[C@H](C)N(C(=O)CC)c5ccccc54)nc3)cc2)C[C@@H]1C [Compound 10k, N^1-(4-(((2S,4R)-2-Methyl-1-propionyl-1,2,3,4-tetrahydroquinolin-4-yl)amino)phenyl)-N^5-(6-(((2S,4R)-2-methyl-1-propionyl-1,2,3,4-tetrahydroquinolin-4-yl)amino)pyridin-3-yl)glutaramide]
9.88 | CCC(=O)N1c2ccc(F)cc2[C@H](Nc2ccc(C(=O)NCCCNC(=O)c3ccc(N[C@@H]4C[C@H](C)N(C(=O)CC)c5ccc(F)cc54)cc3)cc2)C[C@@H]1C [Compound 10q, N,N′-(Propane-1,3-diyl)bis(4-(((2S,4R)-6-fluoro-2-methyl-1-propionyl-1,2,3,4-tetrahydroquinolin-4-yl)amino)benzamide)]
